# Measured values published in PubChem BioAssay AID1259408 (Genetic Toxicology Data Bank (GENE-TOX), 2018).
# The source made the active and inactive calls. The rule behind the calls is not given here.
# Test system: GENE-TOX genotoxicity assays, various organisms and cells
# Experiment: GENE-TOX mutagenicity studies
# Conditions: for call: Assay Type: In vivo carcinogenicity studies
# From the text: GENE-TOX provides genetic toxicology (mutagenicity) test data from expert peer review of open scientific literature for more than 3,000 chemicals from the United States Environmental Protection Agency (EPA). GENE-TOX was established to select assay systems for evaluation, review data in the scientific literature, and recommend proper testing protocols and evaluation procedures for these systems.
# GENE-TOX covers the years 1991 - 1998. It is no longer updated.
# This is an archive assay for GENE-TOX mutagenicity studies.
# [1] = Species/Cell Type: Nonhuman, Assay Type: Sister-chromatid exchange (SCE) in vitro, Assay Code: SC2+D, Dose Response: With dose response, Evaluation Type: Evaluation B (Post-1980)
# [2] = Species/Cell Type: Escherichia coli WP2 UVRA, Assay Type: Tryptophan reverse gene mutation, Assay Code: WPU+D, Dose Response: With dose response, Evaluation Type: Evaluation A (Pre-1980)
# [3] = Species/Cell Type: Salmonella typhimurium (one or more of the five standard strains: TA98, TA100, TA1535, TA1537, and TA1538), Assay Type: Histidine reverse gene mutation, Ames assay, Assay Code: SAL+*, Activation: With metabolic activation, Evaluation Type: Evaluation A (Pre-1980)
# [4] = Species/Cell Type: Nonhuman, Assay Code: CCGT, Evaluation Type: Evaluation A (Pre-1980)
# [5] = Species/Cell Type: Drosophila melanogaster, Assay Type: Sex-linked recessive lethal gene mutation, Assay Code: SRL+, Evaluation Type: Evaluation A (Pre-1980)
# [6] = Species/Cell Type: Mammalian polychromatic erythrocytes, Assay Type: Micronucleus test, chromosome aberrations, Assay Code: MNT+, Evaluation Type: Evaluation A (Pre-1980)
# [7] = Species/Cell Type: Saccharomyces cerevisiae, Assay Type: Mitotic recombination or gene conversion, Assay Code: YEC+, Evaluation Type: Evaluation A (Pre-1980)
# [8] = Species/Cell Type: Nonhuman, Assay Type: Sister-chromatid exchange (SCE) in vitro, Assay Code: SC2+D, Dose Response: With dose response, Evaluation Type: Evaluation A (Pre-1980)
# [9] = Species/Cell Type: Mammalian polychromatic erythrocytes, Assay Type: Micronucleus test, chromosome aberrations, Assay Code: MNTT, Evaluation Type: Evaluation B (Post-1980)
# [10] = Species/Cell Type: Salmonella typhimurium (one or more of the five standard strains: TA98, TA100, TA1535, TA1537, and TA1538), Assay Type: Histidine reverse gene mutation, Ames assay, Assay Code: SALT, Evaluation Type: Evaluation A (Pre-1980)
# [11] = Species/Cell Type: Drosophila melanogaster, Assay Type: Sex-linked recessive lethal gene mutation, Assay Code: SRLT, Evaluation Type: Evaluation A (Pre-1980)
compound,measurement,setting,value
Cc1nc(N)cc2c1[nH]c1ccccc12,mutagenic call,"Species/Cell Type: Human lymphocytes, Assay Type: Sister-chromatid exchange (SCE) in vitro, Assay Code: SCL+, Evaluation Type: Evaluation B (Post-1980)",active; positive
same,mutagenic call,"Species/Cell Type: Human, Assay Type: Sister-chromatid exchange (SCE) in vitro, Assay Code: SC1+, Evaluation Type: Evaluation B (Post-1980)",active; positive
same,mutagenic call,[1],active; positive
CN[C@H]1[C@@H](O[C@@H]2C3CC#CC4O[C@@]4(C4COC(=O)O4)C#CC3=C[C@H]2OC(=O)c2c(O)ccc3c(C)cc(OC)cc23)O[C@H](C)[C@H](O)[C@@H]1O (stereo not given in full),mutagenic call,"Species/Cell Type: Escherichia coli WP2, Assay Type: Tryptophan reverse gene mutation, Assay Code: WP2+D, Dose Response: With dose response, Evaluation Type: Evaluation A (Pre-1980)",active; positive
same,mutagenic call,[2],active; positive
same,mutagenic call,"Species/Cell Type: Human diploid fibroblasts, Assay Type: Unscheduled DNA synthesis (UDS) in vitro, DNA effects, Assay Code: UDH+D, Dose Response: With dose response, Evaluation Type: Evaluation A (Pre-1980)",active; positive
same,mutagenic call,[1],active; positive
Cc1cccc2c1ccc1c3ccccc3ccc21,mutagenic call,[3],active; positive
Cc1ccc2cc3c4c(ccc3c3c2c1CC3)C=C[C@H](O)[C@H]4O,mutagenic call,"Species/Cell Type: Chinese hamster lung (V79) cells, Assay Type: Forward gene mutation at the HPRT or ouabain locus, Assay Code: V79+, Evaluation Type: Evaluation A (Pre-1980)",active; positive
same,call,[4],no conclusion
same,mutagenic call,[3],active; positive
CC(=O)Oc1c2ccccc2c2ccc3cccc4ccc1c2c43,mutagenic call,"Species/Cell Type: Syrian hamster embryo (SA7/SHE) cells, Assay Type: Cell transformation, viral enhanced, Assay Code: CT7+, Evaluation Type: Evaluation A (Pre-1980)",active; positive
CN(C)N=Nc1c(Cl)cc(Cl)cc1Cl,mutagenic call,"Species/Cell Type: Drosophila melanogaster, Assay Type: Aneuploidy, partial sex chromosome loss, chromosome aberrations, Assay Code: DAPT, Evaluation Type: Evaluation A (Pre-1980)",no conclusion
same,mutagenic call,"Species/Cell Type: Drosophila melanogaster, Assay Type: Aneuploidy, whole sex chromosome loss, chromosome aberrations, Assay Code: DACT, Evaluation Type: Evaluation A (Pre-1980)",no conclusion
same,mutagenic call,[5],active; positive
same,mutagenic call,[6],active; positive
same,mutagenic call,"Species/Cell Type: Neurospora crassa, Assay Type: Forward gene mutation, Assay Code: NEF+, Evaluation Type: Evaluation A (Pre-1980)",active; positive
same,mutagenic call,[7],active; positive
CN(C)CCCN1c2ccccc2Sc2ccc(Cl)cc21,mutagenic call,"Species/Cell Type: Chinese hamster lung (V79) cells, Assay Type: Forward gene mutation at the HPRT or ouabain locus, Assay Code: V79-, Evaluation Type: Evaluation A (Pre-1980)",inactive; negative
same,mutagenic call,"Species/Cell Type: Human lymphocytes, Assay Type: Sister-chromatid exchange (SCE) in vitro, Assay Code: SCL+D, Dose Response: With dose response, Evaluation Type: Evaluation B (Post-1980)",active; positive
same,mutagenic call,"Species/Cell Type: Human, Assay Type: Sister-chromatid exchange (SCE) in vitro, Assay Code: SC1+D, Dose Response: With dose response, Evaluation Type: Evaluation B (Post-1980)",active; positive
same,call,[4],no conclusion
same,mutagenic call,[8],active; positive
same,mutagenic call,"Species/Cell Type: Nonhuman, Assay Type: Sister-chromatid exchange (SCE) in vivo, Assay Code: SC3T, Evaluation Type: Evaluation B (Post-1980)",no conclusion
COC(=O)C1=CCCN(C)C1,mutagenic call,"Species/Cell Type: Mammalian polychromatic erythrocytes, Assay Type: Micronucleus test, chromosome aberrations, Assay Code: MNT+U, Dose Response: Unconfirmed positive response, Evaluation Type: Evaluation B (Post-1980)",active; positive
same,mutagenic call,"Species/Cell Type: Nonhuman, Assay Type: Sister-chromatid exchange (SCE) in vivo, Assay Code: SC3+, Evaluation Type: Evaluation B (Post-1980)",active; positive
CCCN(CCC)C(=O)SCC (tested in a mixture with another compound),mutagenic call,"Species/Cell Type: Zea mays (corn), Assay Type: Gene mutation, Assay Code: ZEM-, Evaluation Type: Evaluation A (Pre-1980)",inactive; negative
Nc1ncc(/C=C/c2ccc([N+](=O)[O-])o2)nn1,mutagenic call,"Species/Cell Type: Bacillus subtilis (H17 vs M45), Assay Type: Rec-assay, spot test, DNA effects (bacterial DNA repair), Assay Code: REW-, Evaluation Type: Evaluation A (Pre-1980)",inactive; negative
same,mutagenic call,"Species/Cell Type: Escherichia coli WP2, Assay Type: Tryptophan reverse gene mutation, Assay Code: WP2+, Evaluation Type: Evaluation A (Pre-1980)",active; positive
same,mutagenic call,[2],active; positive
CC(=O)ON(C)c1ccc(N=Nc2ccccc2)cc1,mutagenic call,"Species/Cell Type: Salmonella typhimurium (one or more of the five standard strains: TA98, TA100, TA1535, TA1537, and TA1538), Assay Type: Histidine reverse gene mutation, Ames assay, Assay Code: SAL+, Evaluation Type: Evaluation A (Pre-1980)",active; positive
CN(C)N=Nc1ccc(Cl)cc1,mutagenic call,[5],active; positive
same,mutagenic call,[6],active; positive
same,mutagenic call,[7],active; positive
c1ccncc1,mutagenic call,[9],no conclusion
same,mutagenic call,[8],active; positive
OC[C@@H](O)C(O)[C@@H](O)CO (stereo not given in full),mutagenic call,"Species/Cell Type: Human, Assay Type: Sister-chromatid exchange (SCE) in vitro, Assay Code: SC1-, Evaluation Type: Evaluation B (Post-1980)",inactive; negative
same,mutagenic call,"Species/Cell Type: Salmonella typhimurium, Assay Type: Forward and reverse gene mutation, body fluid assay, Assay Code: BFU-, Evaluation Type: Evaluation A (Pre-1980)",inactive; negative
same,mutagenic call,"Species/Cell Type: Salmonella typhimurium, Assay Type: Forward and reverse gene mutation, host-mediated assay, Assay Code: HMA-, Evaluation Type: Evaluation A (Pre-1980)",inactive; negative
[O]=[V],mutagenic call,"Species/Cell Type: Bacillus subtilis (H17 vs M45), Assay Type: Rec-assay, spot test, DNA effects (bacterial DNA repair), Assay Code: REW+, Evaluation Type: Evaluation A (Pre-1980)",active; positive
CN(CCCC(=O)O)N=O,mutagenic call,[10],no conclusion
O=c1cc[nH]c(=S)[nH]1,mutagenic call,[11],no conclusion
Cc1c2ccccc2cc2c1ccc1cccc(C)c12,mutagenic call,[11],no conclusion
Cc1cc(C2(c3ccc(O)c(C)c3)OC(=O)c3ccccc32)ccc1O,mutagenic call,"Species/Cell Type: Allium cepa, Assay Type: Chromosome aberrations, Assay Code: ALC+, Evaluation Type: Evaluation A (Pre-1980)",active; positive
CCCCN1CC1,mutagenic call,"Species/Cell Type: Schizosaccharomyces pombe, Assay Type: Reverse gene mutation, Assay Code: YEZ+, Evaluation Type: Evaluation A (Pre-1980)",active; positive
Cn1c(=O)c(N)c(-c2ccccc2)c2cc(Cl)ccc21,mutagenic call,[10],no conclusion
CCN(CC)CCNc1ccc(O)c2c1C(=O)c1ccccc1S2=O (stereo not given),mutagenic call,"Species/Cell Type: Fischer rat embryo (RLV/1706) cells, Assay Type: Cell transformation, viral enhanced, Assay Code: CTR+, Evaluation Type: Evaluation A (Pre-1980)",active; positive
CC(=O)c1cc(O)c(C(C)C)c2cc(C)c(-c3c(C)cc4c(C(C)C)c(O)c(O)c(C=O)c4c3O)c(O)c12,mutagenic call,[9],no conclusion
same,mutagenic call,"Species/Cell Type: Nonhuman, Assay Type: Sister-chromatid exchange (SCE) in vivo, Assay Code: SC3+D, Dose Response: With dose response, Evaluation Type: Evaluation B (Post-1980)",active; positive
[Be]=[O],call,"Species/Cell Type: Nonhuman, Assay Code: CCG+, Evaluation Type: Evaluation A (Pre-1980)",active; positive
